# Data reported in patent US20160297833A1, “THIENOPYRIMIDINES AS MKNK1 AND MKNK2 INHIBITORS” (BAYER PHARMA AKTIENGESELLSCHAFT, priority 2013, published 2016).
# Target: T1, human full-length MKNK1 (Homo sapiens, UniProt Q9BUB5, T385D)
# T1 construct: GST (N); purchased Carna Biosciences 02-145; host or cells: insect cells (baculovirus expression system)
# Assay: MKNK1 kinase high ATP assay (TR-FRET)
# Assay type: biochemical
# Details: Table 1; MKNK1 kinase high ATP assay, 2 mM ATP; read-out: MKNK1 IC50
# Procedure, shortened: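 Full-length human MKNK1 (T385D) preincubated 15 min at 22 °C with compound in HEPES pH 7.5/MgCl2/DTT buffer; reaction with 2 mM ATP (final) and 0.06 μM biotinylated peptide (final), 30 min at 22 °C.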
# T1 sequence (Q9BUB5 1-424 isoform Q9BUB5-2 T344D): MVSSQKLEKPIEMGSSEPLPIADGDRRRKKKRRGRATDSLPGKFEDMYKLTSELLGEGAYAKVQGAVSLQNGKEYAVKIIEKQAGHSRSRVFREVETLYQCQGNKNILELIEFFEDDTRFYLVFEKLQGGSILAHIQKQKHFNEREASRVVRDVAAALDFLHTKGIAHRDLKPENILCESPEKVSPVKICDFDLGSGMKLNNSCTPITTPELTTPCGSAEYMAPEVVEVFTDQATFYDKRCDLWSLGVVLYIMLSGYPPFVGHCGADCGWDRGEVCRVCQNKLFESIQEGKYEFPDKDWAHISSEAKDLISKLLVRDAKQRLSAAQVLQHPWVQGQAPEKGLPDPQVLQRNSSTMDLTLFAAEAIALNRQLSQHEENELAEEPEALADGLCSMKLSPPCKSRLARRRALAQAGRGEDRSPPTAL
row,IC50 [nM],Compound
1,882,"CN(C)C(=O)[C@H]1CCc2c(sc3ncnc(Nc4cc5cn[nH]c5cc4NCC(C)(C)O)c23)C1 [Example 100, (7S)-4-({6-[(2-Hydroxy-2-methylpropyl)amino]-1H-indazol-5-yl}amino)-N,N-dimethyl-5,6,7,8-tetrahydro[1]benzothieno[2,3-d]pyrimidine-7-carboxamide]"
2,0.7,"CC(C)Oc1cc2[nH]ncc2cc1Nc1ncnc2sc3c(c12)CC[C@H](C(=O)N1CCOC[C@@H]1C)C3 [Example 84, [(3S)-3-Methylmorpholin-4-yl][(7S)-4-{[6-(propan-2-yloxy)-1H-indazol-5-yl]amino}-5,6,7,8-tetrahydro[1]benzothieno[2,3-d]pyrimidin-7-yl]methanone]"
3,27.2,"CN(C)C1CCN(c2cc3[nH]ncc3cc2Nc2ncnc3sc4c(c23)CC[C@H](C(=O)N2CCC2)C4)CC1 [Example 132, Azetidin-1-yl[(7S)-4-({6-[4-(dimethylamino)piperidin-1-yl]-1H-indazol-5-yl}amino)-5,6,7,8-tetrahydro[1]benzothieno[2,3-d]pyrimidin-7-yl]methanone]"
4,43.3,"CN(C)C(=O)[C@H]1CCc2c(sc3ncnc(Nc4cc5cn[nH]c5cc4OCCN(C)C(=O)OC(C)(C)C)c23)C1 [Example 256, tert-Butyl {2-[(5-{[(7S)-7-(dimethylcarbamoyl)-5,6,7,8-tetrahydro[1]benzothieno[2,3-d]pyrimidin-4-yl]amino}-1H-indazol-6-yl)oxy]ethyl}methylcarbamate]"
5,3.5,"C[C@H](N)COc1cc2[nH]ncc2cc1Nc1ncnc2sc3c(c12)CC[C@H](C(=O)N(C)C)C3 [Example 142, (7S)-4-[(6-{[(2S)-2-Aminopropyl]oxy}-1H-indazol-5-yl)amino]-N,N-dimethyl-5,6,7,8-tetrahydro[1]benzothieno[2,3-d]pyrimidine-7-carboxamide]"
6,1.6,"CCOC(=O)NC[C@@H](C)Oc1cc2[nH]ncc2cc1Nc1ncnc2sc3c(c12)CC[C@H](C(=O)N(C)C)C3 [Example 263, Ethyl {(2R)-2-[(5-{[(7S)-7-(dimethylcarbamoyl)-5,6,7,8-tetrahydro[1]benzothieno[2,3-d]pyrimidin-4-yl]amino}-1H-indazol-6-yl)oxy]propyl}carbamate]"
7,4,"O=C([C@H]1CCc2c(sc3ncnc(Nc4ccc5[nH]ncc5c4)c23)C1)N1C[C@H]2C[C@@H]1CO2 [Example 11, [(7S)-4-(1H-Indazol-5-ylamino)-5,6,7,8-tetrahydro[I]benzothieno[2,3-d]pyrimidin-7-yl][(1R,4R)-2-oxa-5-azabicyclo[2.2.1]hept-5-yl]methanone]"
8,2.1,"C[C@@H]1CN(C(=O)[C@H]2CCc3c(sc4ncnc(Nc5cc6cn[nH]c6cc5Br)c34)C2)C[C@@H](C)O1 [Example 233, {(7S)-4-[(6-Bromo-1H-indazol-5-yl)amino]-5,6,7,8-tetrahydro[1]benzothieno[2,3-d]pyrimidin-7-yl}[(2R,6R)-2,6-dimethylmorpholin-4-yl]methanone]"

# The next lines start with the compound.
row,Compound,IC50 [nM]
1,"CN(C)C1CCN(c2cc3[nH]ncc3cc2Nc2ncnc3sc4c(c23)CC[C@H](C(=O)N2CCOCC2)C4)CC1 [Example 133, [(7S)-4-({6-[4-(Dimethylamino)piperidin-1-yl]-1H-indazol-5-yl}amino)-5,6,7,8-tetrahydro[1]benzothieno[2,3-d]pyrimidin-7-yl](morpholin-4-yl)methanone]",37.9
2,"COc1cc2[nH]ncc2cc1Nc1ncnc2sc3c(c12)CC[C@H](C(=O)N(C)CC(C)(C)OC)C3 [Example 204, (7S)-4-[(6-Methoxy-1H-indazol-5-yl)amino]-N-(2-methoxy-2-methylpropyl)-N-methyl-5,6,7,8-tetrahydro[1]benzothieno[2,3-d]pyrimidine-7-carboxamide]",0.9
3,"CN(C)C(=O)[C@H]1CCc2c(sc3ncnc(Nc4cc5cn[nH]c5cc4N4CCC(N(C)C)CC4)c23)C1 [Example 104, (7S)-4-({6-[4-(Dimethylamino)piperidin-1-yl]-1H-indazol-5-yl}amino)-N,N-dimethyl-5,6,7,8-tetrahydro[1]benzothieno[2,3-d]pyrimidine-7-carboxamide]",29.5
4,"CCOc1cc2[nH]ncc2cc1Nc1ncnc2sc3c(c12)CC[C@H](C(=O)N1C[C@H]2C[C@@H]1CO2)C3 [Example 71, {(7S)-4-[(6-Ethoxy-1H-indazol-5-yl)amino]-5,6,7,8-tetrahydro[1]benzothieno[2,3-d]pyrimidin-7-yl}[(1R,4R)-2-oxa-5-azabicyclo[2.2.1]hept-5-yl]methanone]",0.9
5,"CN(C)C(=O)[C@H]1CCc2c(sc3ncnc(Nc4cc5cn[nH]c5cc4OCCCN4CCCC4)c23)C1 [Example 277, (7S)—N,N-Dimethyl-4-({6-[3-(pyrrolidin-1-yl)propoxy]-1H-indazol-5-yl}amino)-5,6,7,8-tetrahydro[1]benzothieno[2,3-d]pyrimidine-7-carboxamide]",59.2
6,"COc1cc2[nH]ncc2cc1Nc1ncnc2sc3c(c12)CC[C@H](C(=O)N(CCC(=O)N(C)C)C1CC1)C3 [Example 56, (7S)—N-Cyclopropyl-N-[3-(dimethylamino)-3-oxopropyl]-4-[(6-methoxy-1H-indazol-5-yl)amino]-5,6,7,8-tetrahydro[1]benzothieno[2,3-d]pyrimidine-7-carboxamide]",0.3
7,"CC(C)OC(=O)NC[C@@H](C)Oc1cc2[nH]ncc2cc1Nc1ncnc2sc3c(c12)CC[C@H](C(=O)N(C)C)C3 [Example 261, Propan-2-yl {(2R)-2-[(5-{[(7S)-7-(dimethylcarbamoyl)-5,6,7,8-tetrahydro[1]benzothieno[2,3-d]pyrimidin-4-yl]amino}-1H-indazol-6-yl)oxy]propyl}carbamate]",3.2
8,"COc1cc2[nH]ncc2cc1Nc1ncnc2sc3c(c12)CC[C@H](C(=O)N(C)CCC(=O)N(C)C)C3 [Example 55, (7S)—N-[3-(Dimethylamino)-3-oxopropyl]-4-[(6-methoxy-1H-indazol-5-yl)amino]-N-methyl-5,6,7,8-tetrahydro[1]benzothieno[2,3-d]pyrimidine-7-carboxamide]",0.1
9,"C[C@H](N)COc1cc2[nH]ncc2cc1Nc1ncnc2sc3c(c12)CC[C@H](C(=O)N1CCOC[C@H]1C)C3 [Example 146, {(7S)-4-[(6-{[(2S)-2-Aminopropyl]oxy}-1H-indazol-5-yl)amino]-5,6,7,8-tetrahydro[1]benzothieno[2,3-d]pyrimidin-7-yl}[(3R)-3-methylmorpholin-4-yl]methanone]",13.1
10,"CCN(CCO)C(=O)[C@H]1CCc2c(sc3ncnc(Nc4ccc5[nH]ncc5c4)c23)C1 [Example 19, (7S)—N-Ethyl-N-(2-hydroxyethyl)-4-(1H-indazol-5-ylamino)-5,6,7,8-tetrahydro[1]benzothieno[2,3-d]pyrimidine-7-carboxamide]",2.5
11,"CN(C)C(=O)[C@H]1CCc2c(sc3ncnc(Nc4cc5cn[nH]c5cc4OCCCN)c23)C1 [Example 111, (7S)-4-{[6-(3-Aminopropoxy)-1H-indazol-5-yl]amino}-N,N-dimethyl-5,6,7,8-tetrahydro[1]benzothieno[2,3-d]pyrimidine-7-carboxamide]",1.4
12,"CCN(C)C(=O)[C@H]1CCc2c(sc3ncnc(Nc4ccc5[nH]ncc5c4)c23)C1 [Example 4, (7S)—N-Ethyl-4-(1H-indazol-5-ylamino)-N-methyl-5,6,7,8-tetrahydro[1]benzothieno[2,3-d]pyrimidine-7-carboxamide]",3.5
13,"CSc1cc2[nH]ncc2cc1Nc1ncnc2sc3c(c12)CC[C@H](C(=O)N1CCC1)C3 [Example 250, Azetidin-1-yl[(7S)-4-{[6-(methylsulfanyl)-1H-indazol-5-yl]amino}-5,6,7,8-tetrahydro[1]benzothieno[2,3-d]pyrimidin-7-yl]methanone]",2.8
14,"CSc1cc2[nH]ncc2cc1Nc1ncnc2sc3c(c12)CC[C@H](C(=O)N(C)CCC(F)(F)F)C3 [Example 249, (7S)—N-Methyl-4-{[6-(methylsulfanyl)-1H-indazol-5-yl]amino}-N-(3,3,3-trifluoropropyl)-5,6,7,8-tetrahydro[1]benzothieno[2,3-d]pyrimidine-7-carboxamide]",2.3
15,"COc1cc2[nH]ncc2cc1Nc1ncnc2sc3c(c12)CC[C@H](C(=O)N(C)C[C@H](C)OC)C3 [Example 282, (7S)-4-[(6-Methoxy-1H-indazol-5-yl)amino]-N-[(2S)-2-methoxypropyl]-N-methyl-5,6,7,8-tetrahydro[1]benzothieno[2,3-d]pyrimidine-7-carboxamide]",0.5
16,"CCOc1cc2[nH]ncc2cc1Nc1ncnc2sc3c(c12)CC[C@H](C(=O)N(CCO)CCO)C3 [Example 77, (7S)-4-[(6-Ethoxy-1H-indazol-5-yl)amino]-N,N-bis(2-hydroxyethyl)-5,6,7,8-tetrahydro[1]benzothieno[2,3-d]pyrimidine-7-carboxamide]",0.1
17,"CN(C)C(=O)[C@H]1CCc2c(sc3ncnc(Nc4cc5cn[nH]c5cc4N(C)CCC(C)(C)O)c23)C1 [Example 242, (7S)-4-({6-[(3-Hydroxy-3-methylbutyl)(methyl)amino]-1H-indazol-5-yl}amino)-N,N-dimethyl-5,6,7,8-tetrahydro[1]benzothieno[2,3-d]pyrimidine-7-carboxamide]",20.3

# Same assay, conditions: Table 3; example numbers of WO2013/174744(A1), not of this patent; pure enantiomer from chiral HPLC, absolute configuration at amide 'R or S'; read-out: MKNK1 IC50
row,IC50 [nM],Compound
1,7.2,"[(7S)-4-(1H-Indazol-5-ylamino)-5,6,7,8-tetrahydro[1]benzothieno[2,3-d]pyrimidin-7-yl](morpholin-4-yl)methanone [Example 9]"

# Same assay, conditions: Table 3; example numbers of WO2013/174744(A1), not of this patent; pure enantiomer from chiral HPLC, absolute configuration at amide 'S or R'; read-out: MKNK1 IC50
row,IC50 [nM],Compound
1,1.8,"[(7S)-4-(1H-Indazol-5-ylamino)-5,6,7,8-tetrahydro[1]benzothieno[2,3-d]pyrimidin-7-yl](morpholin-4-yl)methanone [Example 9]"

# Same assay, conditions: Table 3; example numbers of WO2013/174744(A1); ratio of the IC50 values of the two enantiomers
row,Activity Ratio MKNK1,Compound
1,3.9,"[(7S)-4-(1H-Indazol-5-ylamino)-5,6,7,8-tetrahydro[1]benzothieno[2,3-d]pyrimidin-7-yl](morpholin-4-yl)methanone [Example 9]"
